The target of test [1] is T1, human EP4 (Homo sapiens, UniProt P35408).
T1 construct: expressed in transfected cells
Put plainly: In vitro human EP4 functional antagonist activity (PGE2-stimulated cAMP, HTRF, HEK293). Particulars: HEK293 cells expressing human EP4, EC80 of PGE2; geometric mean ± SD; read-out: IC50, inhibition of PGE2-stimulated cAMP production, human EP4. The format is cell-based. Here is the method:
Assays are conducted in recombinant HEK293 cells stably expressing human EP4 receptor. The cell lines are maintained by culturing in DMEM with high glucose and pyridoxine hydrochloride (Invitrogen) supplemented with 10% fetal bovine serum (FBS), 1 mM sodium pyruvate, 10 mM HEPES, […] and 2 mM L-glutamine. Confluent cultures are grown at 37° C. in an atmosphere containing 5% CO2. Cells are harvested using 2.5% Trypsin-EDTA, suspended in freeze media (FBS with 6% DMSO) at 10^7 cells/mL and aliquots are stored in liquid nitrogen. Just before assay, cells are thawed in DMEM, centrifuged, and resuspended in cAMP buffer.
The inhibition of PGE2-stimulated cAMP production by EP4 antagonists is measured using HTRF; (Cisbio catalog #62AM4PEB). […] The HTRF signal is detected using an EnVision® plate reader (Perkin-Elmer) to calculate the ratio of fluorescence at 665 nm to 620 nm. […] Results are expressed as the geometric mean±standard deviation; n=number of independent determinations. The standard deviation is calculated by the delta method, being Slog IC50×geometric mean×ln(10).
A general note: TR-FRET usually uses a lanthanide donor and a delayed reading to cut background.

A further test deals with T2, rat EP4 (Rattus norvegicus, UniProt P43114).
T2 construct: expressed in transfected cells
T2 sequence (P43114 whole entry): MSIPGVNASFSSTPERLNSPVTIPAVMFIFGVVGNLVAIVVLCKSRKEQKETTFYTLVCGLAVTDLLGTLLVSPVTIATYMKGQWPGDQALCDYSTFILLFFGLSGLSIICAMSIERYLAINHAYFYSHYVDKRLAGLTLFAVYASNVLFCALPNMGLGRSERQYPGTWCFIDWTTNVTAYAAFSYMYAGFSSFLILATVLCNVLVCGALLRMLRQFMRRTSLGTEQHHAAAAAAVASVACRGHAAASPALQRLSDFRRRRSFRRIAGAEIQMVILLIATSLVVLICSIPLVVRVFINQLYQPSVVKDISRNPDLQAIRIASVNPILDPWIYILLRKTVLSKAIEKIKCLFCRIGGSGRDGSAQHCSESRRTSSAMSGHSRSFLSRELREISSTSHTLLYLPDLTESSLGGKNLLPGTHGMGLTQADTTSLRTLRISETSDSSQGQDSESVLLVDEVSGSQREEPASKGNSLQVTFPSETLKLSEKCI
Put plainly: In vitro rat EP4 functional antagonist activity (PGE2-stimulated cAMP, HTRF, HEK293). The format is cell-based. Particulars: HEK293 cells expressing rat EP4, PGE2 at EC80, cAMP HTRF; read-out: IC50 measured at rat EP4. How it is done:
Rat EP4 cDNA (Genebank Accession# NM 03276) is cloned into pcDNA 3.1 vector and subsequently transfected in HEK293 cells for receptor expression. Rat EP4 stable clone is scaled up and then frozen down as cell bank for future compounds screening. To test EP4 antagonist compounds in rEP4 cells, thaw the frozen cells and then resuspend cells in cAMP assay buffer. The cAMP buffer is made by HBSS without Phenol Red (Hyclone, SH30268) supplemented with 20 mM HEPES (Hyclone, SH30237), 0.1% BSA (Gibco, 15260) and 125 μM IBMX (Sigma, 15879). The cells are plated into 96-well half area flat-bottom polystyrene black plates (Costar 3694). Compounds are serial diluted with DMSO to give 10-point concentration response curves. Then diluted compounds are added into cAMP assay buffer which contains PGE2 (Cayman 14010, in a concentration predetermined to produce an EC80) at ratio of DMSO/buffer at 1/100. The cells are treated with compounds in the presence of PGE2 (EC80 concentration) for 30 minutes at room temperature. The cAMP levels generated from the cells are quantified by a cAMP HTRF assay kit (Cisbio 62AM4PEC). The plates are read on an EnVision plate reader using HTRF optimized protocol (PerkinElmer). IC50's are calculated using Graphpad Prism (v. 4) nonlinear regression, sigmoidal dose response curve fitting.

The target in test [2] is T1, human EP4. In words: In vitro binding to human EP4 ([3H]-PGE2 displacement, membranes). Particulars: HEK293 membranes, geometric mean ± SD, read-out: hEP4, Ki. How it is done: (§1) hEP1 and hEP4 membranes are prepared from recombinant HEK293 cells stably expressing human EP1 (Genbank accession number AY275470) or EP4 (Genbank accession number AY429109) receptors. hEP2 and hEP3 membranes are prepared from HEK293 cells transiently transfected with EP2 (Genbank accession number AY275471) or EP3 (isoform VI: Genbank accession number AY429108) receptor plasmids. Frozen cell pellets are homogenized in homogenization buffer using a Teflon/glass homogenizer. Membrane protein is aliquoted and quick frozen on dry ice prior to storage at −80° C. Homogenization buffer contained 10 mM Tris-HCl, pH 7.4, 250 mM sucrose, 1 mM EDTA, 0.3 mM indomethacin and plus Complete™, with EDTA, obtained from Roche Molecular Biochemicals (Catalog Number 1 697 498).
(§2) Kd values for [^3H]-PGE2 binding to each receptor are determined by saturation binding studies or homologous competition. […] Non-specific binding is calculated by comparing binding in the presence and absence of 2 μM of PGE2. The membranes are harvested by filtration (TomTek harvester), washed 4 times with cold buffer (10 mM MES pH 6.0 with KOH, 10 mM MgCl2), dried in a 60° C. oven, and the radioactivity is quantified as counts per minute (CPM) using a TopCount detector. Percent specific binding is calculated as the percent of the binding in the absence of any inhibitor, corrected for binding in the presence of 2 uM of PGE2. […]

A further test concerns the target T3, human EP2 (Homo sapiens, UniProt P43116).
T3 construct: expressed in transfected cells; host or cells: HEK293 (transient)
In words: In vitro binding to human EP2 ([3H]-PGE2 displacement, membranes). Particulars: HEK293 membranes, geometric mean ± SD, read-out: hEP2, Ki. How it is done: as §1, §2

Test [3] relates to LPS-induced TNFα production in human whole blood. Put plainly: In vitro antagonist activity in human whole blood (reversal of PGE2 inhibition of LPS-induced TNFα). The format is cell-based. Particulars: 10 μg/mL LPS, 10 nM PGE2, geometric mean ± SD, read-out: IC50, reversal of inhibitory effect of PGE2 on LPS-induced TNFα production. An excerpt: The inhibitory effects of PGE2 on LPS-induced TNFα production from macrophages/monocytes are believed to be mediated by EP4 receptors (See Murase, A., et al., Life Sciences, 82:226-232 (2008)). The ability of the compound of Example 1 to reverse the inhibitory effect of PGE2 on LPS-induced TNFα production in human whole blood is an indicia of functional activity.
Blood is collected from normal volunteer donors into sodium heparin vacutainer tubes. Donors have not taken NSAIDs or celecoxib within 48 hours or glucocorticoids within two weeks of the donation. All tubes/donor are pooled into 50 mL Falcon conical centrifuge tubes and 98 μL/well is distributed into 96-well tissue culture plates (Falcon 3072). […] TNFα levels in 2 μL plasma are quantified by a commercially available enzyme immunoassay (R&D Systems DY210), using Immulon 4 HBX plates (Thermo 3855) and 3,3′,5,5′ tetramethylbiphenyl-4,4′-diamine substrate (KPL 50-76-03). The plates are read at A450-A650 on a plate reader (Molecular Devices Versamax) using SOFTmaxPRO (v. 4.3.1) software. IC50s are calculated using Graphpad Prism (v. 4) nonlinear regression, sigmoidal dose response curve fitting. Results are expressed as the geometric mean±standard deviation; n=number of independent determinations. The standard deviation is calculated by the delta method, being SDlog IC50×geometric mean×ln(10).

Another test concerns the target T4, human EP1 (Homo sapiens, UniProt P34995).
T4 construct: expressed in transfected cells
T4 sequence (P34995 1-402): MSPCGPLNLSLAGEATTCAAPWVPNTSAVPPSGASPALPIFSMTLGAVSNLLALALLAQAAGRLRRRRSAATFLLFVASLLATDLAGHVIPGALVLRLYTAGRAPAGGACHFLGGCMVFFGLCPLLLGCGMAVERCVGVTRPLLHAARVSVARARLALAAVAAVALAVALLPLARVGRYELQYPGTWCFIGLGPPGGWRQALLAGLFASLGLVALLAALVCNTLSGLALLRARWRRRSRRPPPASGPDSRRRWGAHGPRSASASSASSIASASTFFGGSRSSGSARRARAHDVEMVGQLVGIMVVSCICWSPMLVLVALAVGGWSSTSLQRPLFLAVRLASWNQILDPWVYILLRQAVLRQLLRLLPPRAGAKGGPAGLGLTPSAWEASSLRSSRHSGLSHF
Put plainly: In vitro binding to human EP1 ([3H]-PGE2 displacement, membranes). Particulars: HEK293 membranes, geometric mean ± SD, read-out: hEP1, Ki. How it is done: as §1, §2

The next test concerns the target T5, human EP3 (isoform VI) (Homo sapiens, UniProt P43115).
T5 construct: expressed in transfected cells; host or cells: HEK293 (transient)
T5 sequence (P43115 1-374 isoform P43115-4): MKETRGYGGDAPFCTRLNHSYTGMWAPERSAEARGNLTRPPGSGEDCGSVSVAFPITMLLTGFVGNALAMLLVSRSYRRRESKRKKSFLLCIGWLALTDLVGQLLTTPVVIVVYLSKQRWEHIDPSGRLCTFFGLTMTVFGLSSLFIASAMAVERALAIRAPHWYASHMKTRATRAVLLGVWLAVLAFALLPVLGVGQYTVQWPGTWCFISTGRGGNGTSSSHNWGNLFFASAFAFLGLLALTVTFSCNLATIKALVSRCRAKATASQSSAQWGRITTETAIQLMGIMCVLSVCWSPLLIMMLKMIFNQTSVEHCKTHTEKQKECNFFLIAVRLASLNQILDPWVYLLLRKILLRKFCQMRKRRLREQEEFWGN
Put plainly: In vitro binding to human EP3 ([3H]-PGE2 displacement, membranes). The following applies: HEK293 membranes, geometric mean ± SD, read-out: hEP3, Ki. Here is the method:
as §1, §2

From patent US10005721B2, “Dimethylbenzoic acid compounds” (Eli Lilly and Company, priority 2013, dated 2018) come the findings set out here.

T1 sequence (P35408 whole entry): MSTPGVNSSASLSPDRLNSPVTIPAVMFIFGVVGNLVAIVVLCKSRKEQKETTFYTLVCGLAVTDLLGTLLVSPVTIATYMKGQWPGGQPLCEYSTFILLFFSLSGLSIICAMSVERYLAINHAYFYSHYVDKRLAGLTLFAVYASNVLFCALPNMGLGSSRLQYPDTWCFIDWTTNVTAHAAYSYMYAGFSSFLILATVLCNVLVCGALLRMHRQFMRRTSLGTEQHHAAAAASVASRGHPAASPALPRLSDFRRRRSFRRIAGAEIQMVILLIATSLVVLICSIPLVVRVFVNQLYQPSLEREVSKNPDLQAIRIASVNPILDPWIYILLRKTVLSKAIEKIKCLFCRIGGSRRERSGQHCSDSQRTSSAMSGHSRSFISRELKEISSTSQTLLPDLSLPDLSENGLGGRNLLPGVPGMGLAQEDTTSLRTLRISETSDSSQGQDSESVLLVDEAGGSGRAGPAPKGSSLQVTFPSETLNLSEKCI
T3 sequence (P43116 whole entry): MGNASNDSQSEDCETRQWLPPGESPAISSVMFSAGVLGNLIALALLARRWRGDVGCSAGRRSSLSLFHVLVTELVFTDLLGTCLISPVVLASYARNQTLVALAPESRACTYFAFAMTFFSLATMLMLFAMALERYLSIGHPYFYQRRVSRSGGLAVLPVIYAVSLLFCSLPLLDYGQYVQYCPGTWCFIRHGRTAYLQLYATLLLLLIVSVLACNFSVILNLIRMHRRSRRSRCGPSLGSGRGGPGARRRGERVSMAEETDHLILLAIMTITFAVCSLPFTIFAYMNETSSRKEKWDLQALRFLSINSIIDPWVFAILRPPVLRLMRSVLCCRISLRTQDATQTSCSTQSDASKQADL

Usually IC50 stands for the point on the concentration scale where inhibition reaches its midpoint. A word on the Ki: it is the dissociation constant of the complex between target and ligand, obtained from inhibition or displacement. Turning to `Cc1ccc(-c2cccc(CO)c2)cc1C(=O)Nc1c(C)ccc(C(=O)O)c1C` [Example 1, 3-[[5-[3-(Hydroxymethyl)phenyl]-2-methyl-benzoyl]amino]-2,4-dimethyl-benzoic acid], the IC50 came out at 2.31 ± 2.02 nM on human EP4 [1], 1.51 nM on rat EP4 and 59.5 ± 37.8 nM in test [3]. The Ki was 2.18 ± 1.74 nM on human EP4 [2], 5850 ± 1010 nM on human EP2, greater than 18800 nM on human EP1 and greater than 14800 nM on human EP3 (isoform VI).

Consider `Cc1ccc(-c2cccc(CO)c2)nc1C(=O)Nc1c(C)ccc(C(=O)O)c1C` [Example 22, 3-[[6-[3-(Hydroxymethyl)phenyl]-3-methyl-pyridine-2-carbonyl]amino]-2,4-dimethyl-benzoic acid], for which the Ki on human EP4 [2] was 2.07 ± 1.31 nM; on human EP2, greater than 18900 nM; on human EP1, greater than 17500 nM; at human EP3 (isoform VI), greater than 14000 nM.
